Assay results: ChEMBL document CHEMBL3425426, “Discovery of DS-1558: A Potent and Orally Bioavailable GPR40 Agonist” (ACS Med Chem Lett, 2015)
pEC50: −log10 of the molar value.

Tests used:
[1] = target: Free fatty acid receptor 1 (Homo sapiens, UniProt O14842); assay: Agonist activity at human GPR40 expressed in CHO cells assessed as calcium flux by FLIPR assay; type: functional, cell-based
[2] = target: T1, Peroxisome proliferator-activated receptor gamma (Homo sapiens, UniProt P37231); assay: Agonist activity at PPARgamma (unknown origin)
T1 sequence (P37231 whole entry): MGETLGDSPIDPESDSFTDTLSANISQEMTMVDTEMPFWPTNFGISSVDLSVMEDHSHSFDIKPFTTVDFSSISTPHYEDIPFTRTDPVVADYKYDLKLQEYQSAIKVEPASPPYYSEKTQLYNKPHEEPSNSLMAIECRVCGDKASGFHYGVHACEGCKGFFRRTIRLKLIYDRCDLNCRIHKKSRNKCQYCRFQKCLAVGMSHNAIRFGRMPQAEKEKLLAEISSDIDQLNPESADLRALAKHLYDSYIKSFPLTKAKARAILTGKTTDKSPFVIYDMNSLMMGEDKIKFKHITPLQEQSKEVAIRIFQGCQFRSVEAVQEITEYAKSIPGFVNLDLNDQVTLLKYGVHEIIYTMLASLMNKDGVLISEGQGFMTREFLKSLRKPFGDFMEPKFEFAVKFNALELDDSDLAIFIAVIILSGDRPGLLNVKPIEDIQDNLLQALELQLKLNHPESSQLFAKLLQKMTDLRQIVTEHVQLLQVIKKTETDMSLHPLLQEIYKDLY

[3] = target: T2, Peroxisome proliferator-activated receptor gamma (Homo sapiens) (UniProt P37231); assay: Agonist activity at PPARgamma (unknown origin) relative to rosiglitazone
T2 sequence (whole entry): T1 sequence (P37231 whole entry)

Free fatty acid receptor 1, sequence (O14842 whole entry): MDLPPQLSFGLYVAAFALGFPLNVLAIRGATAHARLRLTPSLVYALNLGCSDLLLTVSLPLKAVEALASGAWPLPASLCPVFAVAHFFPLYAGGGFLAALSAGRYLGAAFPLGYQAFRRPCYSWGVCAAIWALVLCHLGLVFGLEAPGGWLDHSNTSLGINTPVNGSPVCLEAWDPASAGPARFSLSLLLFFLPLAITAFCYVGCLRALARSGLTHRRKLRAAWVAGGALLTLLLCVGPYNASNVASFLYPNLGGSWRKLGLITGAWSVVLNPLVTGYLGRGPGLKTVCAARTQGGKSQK

CCO[C@@H](CC(=O)O)c1ccc(O[C@@H]2CCCc3ccccc32)cc1 was tested, and the pEC50 [1] was 7.21.

CCOc1cccc2c1CC[C@H]2Oc1ccc([C@H](CC(=O)O)OCC)cc1 showed a pEC50 [1] of 7.20.

CCOC(CC(=O)O)c1ccc(OCc2ccc(Cl)c(Cl)c2)cc1 (racemic) gave a pEC50 [1] of 8.21.

With CCO[C@@H](CC(=O)O)c1ccc(O[C@H]2CCc3ccccc32)cc1 the pEC50 [1] was 7.16.

CCO[C@@H](CC(=O)O)c1ccc(OCc2ccc(C(F)(F)F)cc2)cc1 was tested, and the pEC50 [2] was 4.98, the pEC50 [1] was 8.28 and the Emax [3] was 11.3%.

Molecule CCO[C@@H](CC(=O)O)c1ccc(OCc2ccc(Cl)c(Cl)c2)cc1 has a pEC50 [1] of 8.41.

Work on CCO[C@@H](CC(=O)O)c1ccc(OC2Cc3ccccc3C2)cc1 yielded a pEC50 [1] of 7.08.

With CCO[C@H](CC(=O)O)c1ccc(O[C@H]2CCc3c2cccc3C(F)(F)F)cc1 the pEC50 [1] was 5.59.
